Data on 1 sequence can be found in paper PMC12747932, “Crystal structures of Kif2A complexed with WDR5 reveal the structural plasticity of WIN-S7 sites” (Acta Biochimica et Biophysica Sinica, 2025).

For this experiment, the target named is T1, human WDR5 (residues 24–334) (Homo sapiens, UniProt P61964).
T1 construct: human WDR5 seven tandem WD-40 domain (residues 24–334); GST (N, cleaved yes); made in house; host or cells: Escherichia coli BL21 (DE3)
The experiment in a line: ITC assay of Kif2A peptides titrated into WDR5. As to conditions: wild-type WDR5 0.05 mM, peptide approx. 1 mM, 20 mM Tris-HCl, 200 mM NaCl, pH 7.5, 20°C, mean±SD of a minimum of two experiments, N.D. = not detectable binding. From the text:
The DNA fragment encoding the human WDR5 seven tandem WD-40 domain (residues 24–334) was amplified via PCR from the human brain and bone marrow cDNA library and cloned and inserted into the pGEX-4T1 vector, which was modified to include an N-terminal GST tag and a TEV cleavage site (ENLYFQ/GSHM) (where ‘/’ denotes the cleavage site). The Y191F variant of WDR5 was generated using a MutanBEST kit (TaKaRa, Dalian, China) and verified via DNA sequencing. Proteins were expressed in Escherichia coli BL21 (DE3) cells (Novagen, Darmstadt, Germany) cultured in Luria-Bertani medium at 37°C. Protein expression was induced with 0.2 mM isopropyl β-D-1-thiogalactopyranoside (IPTG) once the optical density at 600 nm (OD600) reached 0.8, and the cultures were shifted to 16°C for incubation for 18 h. The cells were harvested by centrifugation and resuspended in Buffer A (20 mM Tris-HCl, 1 M NaCl, pH 8.0) supplemented with DNase I (10 U) and cOmplete, EDTA-free Protease Inhibitor Cocktail (1 tablet dissolved in 1 mL of sterile water), after which they were lysed by ultrasonication. […]
ITC assays were performed on a Microcal PEAQ-ITC instrument (Malvern Panalytical, Westborough, USA) at 20°C as previously described. Protein concentrations were quantified by measuring the absorbance at 280 nm and diluted to 0.05 mM with Buffer E. Peptides were prepared at approximately 1 mM in the same buffer. […]
In general terms: Isothermal titration calorimetry measures the heat released or taken up as one component is titrated into another.

For “GSAAARPSQ [Kif2A ^R117A, Kif2A 114–122 peptide with R117A mutation, …]”, the “KD, dissociation constant” value is recorded as “completely abolished binding”.
